Positions of bridges follow the written chain, without caps; N, C: chain ends. Non-standard residues stand in square brackets, D forms with d. Residues, ends and D or L forms follow the SMILES beside them. *: point of attachment. Trp(1-CH2COOH) = N[C@@H](Cc1cn(CC(=O)O)c2ccccc12)C(=O)O; X3 = NC(=O)[C@H](CC(=O)O)NC(=O)CCC(=O)NCCCOCCOCCOCCCN*; X14 = O=C(O)CCCCCCCCCCNC(=O)CCC(=O)NCCCOCCOCCOCCCN*; d(cisHyp) = O=C(O)[C@H]1C[C@@H](O)CN1; PEG6 = NCCOCCOCCOCCOCCOCCOCCC(=O)O; Hyp = O=C(O)[C@@H]1C[C@@H](O)CN1; Undecanoyl = CCCCCCCCCCC(=O)*; NMeNle = CCCC[C@H](NC)C(=O)O; NMeA = CN[C@@H](C)C(=O)O; Aun = NCCCCCCCCCCC(=O)O; Dab = NCC[C@H](N)C(=O)O; Dap = NC[C@H](N)C(=O)O
These compounds were tested against T1, PD-L1 (Homo sapiens, UniProt Q9NZQ7) (assay: PD-1/PD-L1 Homogenous Time-Resolved Fluorescence (HTRF) binding assay (PD-1-Ig/PD-L1-His)). Conditions: inhibition of PD-1-Ig binding to PD-L1-TVMV-His; value given as number; read-out: HTRF IC50.
T1 construct: hPDL1(19-239)-TVMV-His; made in house; host or cells: HEK293T
T1 sequence (Q9NZQ7 with tags, fused parts or gaps): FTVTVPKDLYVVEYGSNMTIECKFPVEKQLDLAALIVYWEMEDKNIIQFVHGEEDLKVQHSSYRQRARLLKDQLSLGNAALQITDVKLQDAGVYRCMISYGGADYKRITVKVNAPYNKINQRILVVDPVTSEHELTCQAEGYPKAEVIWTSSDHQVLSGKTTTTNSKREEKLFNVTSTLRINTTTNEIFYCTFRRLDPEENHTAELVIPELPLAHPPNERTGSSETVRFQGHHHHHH
How it was run: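 Inhibitors pre-incubated 15 min with PD-L1-His (10 nM final), then PD-1-Ig (20 nM final) added for 15 min in dPBS/0.1% BSA/0.05% Tween-20. Eu-cryptate anti-Ig (1 nM) and APC anti-His (20 nM) added, 30 min equilibration, 665/620 nm HTRF ratio read.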

IC50	SMILES
456 nM	CCCCCCCCCCC(=O)NCCCC[C@H](NC(=O)CCOCCOCCOCCOCCOCCOCCNC(=O)[C@@H]1CSCC(=O)N[C@@H](Cc2ccc(O)cc2)C(=O)N(C)[C@@H](C)C(=O)N[C@@H](CC(N)=O)C(=O)N2CCC[C@H]2C(=O)N[C@@H](CN)C(=O)N[C@@H](CCC(N)=O)C(=O)N2C[C@H](O)C[C@@H]2C(=O)N[C@@H](Cc2c[nH]c3ccccc23)C(=O)N[C@@H](CO)C(=O)N[C@@H](Cc2cn(CC(=O)O)c3ccccc23)C(=O)N(C)[C@@H](CCCC)C(=O)N(C)[C@@H](CCCC)C(=O)N[C@@H](CC(C)C)C(=O)N1)C(=O)O [Example 11062] ({CH2CO}-Y[NMeA]NP[Dap]Q[d(cisHyp)]WS[Trp(1-CH2COOH)][NMeNle][NMeNle]LC[PEG6]K(Undecanoyl)-OH; thioether N-14)
9.2 nM	CCCC[C@H]1C(=O)N(C)[C@@H](CCCC)C(=O)N[C@@H](CCCNC(=N)N)C(=O)N[C@H](C(=O)NCC(=O)NCCCCCCCCCCC(=O)NCCCCCCCCCCC(=O)O)CSCC(=O)N[C@@H](Cc2ccc(O)cc2)C(=O)N(C)[C@@H](C)C(=O)N[C@@H](CC(N)=O)C(=O)N2CCC[C@H]2C(=O)N[C@@H](Cc2cnc[nH]2)C(=O)N[C@@H](CC(C)C)C(=O)N2C[C@H](O)C[C@H]2C(=O)N[C@@H](Cc2c[nH]c3ccccc23)C(=O)N[C@@H](CO)C(=O)N[C@@H](Cc2c[nH]c3ccccc23)C(=O)N1C [Example 11063] ({CH2CO}-Y[NMeA]NPHL[Hyp]WSW[NMeNle][NMeNle]RCG[Aun][Aun]-OH; thioether N-14)

Same assay, conditions: inhibition of PD-1-Ig binding to PD-L1-TVMV-His; value given as range class; read-out: HTRF IC50

IC50	SMILES
100 to 1600 nM	CCCC[C@H]1C(=O)N(C)[C@@H](CCCC)C(=O)N[C@@H](CC(C)C)C(=O)N[C@H](C(=O)NCCOCCOCCOCCOCCOCCOCCC(=O)NCCCCCCCCCCC(=O)O)CSCC(=O)N[C@@H](Cc2ccc(O)cc2)C(=O)N(C)[C@@H](C)C(=O)N[C@@H](CC(N)=O)C(=O)N2CCC[C@H]2C(=O)N[C@@H](CO)C(=O)N[C@@H](CCC(N)=O)C(=O)N2C[C@H](O)C[C@@H]2C(=O)N[C@@H](Cc2c[nH]c3ccccc23)C(=O)N[C@@H](CO)C(=O)N[C@@H](Cc2cn(CC(=O)O)c3ccccc23)C(=O)N1C [Example 11060] ({CH2CO}-Y[NMeA]NPSQ[d(cisHyp)]WS[Trp(1-CH2COOH)][NMeNle][NMeNle]LC[PEG6][Aun]-OH; thioether N-14)
100 to 1600 nM	CCCC[C@H]1C(=O)N(C)[C@@H](CCCC)C(=O)N[C@@H](CC(C)C)C(=O)N[C@H](C(=O)NCCOCCOCCOCCOCCOCCOCCC(=O)NCCCCCCCCCCC(=O)O)CSCC(=O)N[C@@H](Cc2ccc(O)cc2)C(=O)N(C)[C@@H](C)C(=O)N[C@@H](CC(N)=O)C(=O)N2CCC[C@H]2C(=O)N[C@@H](CN)C(=O)N[C@@H](CCC(N)=O)C(=O)N2C[C@H](O)C[C@@H]2C(=O)N[C@@H](Cc2c[nH]c3ccccc23)C(=O)N[C@@H](CCN)C(=O)N[C@@H](Cc2cn(CC(=O)O)c3ccccc23)C(=O)N1C [Example 11061] ({CH2CO}-Y[NMeA]NP[Dap]Q[d(cisHyp)]W[Dab][Trp(1-CH2COOH)][NMeNle][NMeNle]LC[PEG6][Aun]-OH; thioether N-14)
0.3 to 9.9 nM	CCCC[C@H]1C(=O)N(C)[C@@H](CCCC)C(=O)N[C@@H](CCCNC(=N)N)C(=O)N[C@H](C(=O)NCCCCCCCCCCC(N)=O)CSCC(=O)N[C@@H](Cc2ccc(O)cc2)C(=O)N(C)[C@@H](C)C(=O)N[C@@H](CC(=O)O)C(=O)N2CCC[C@H]2C(=O)N[C@@H](Cc2cnc[nH]2)C(=O)N[C@@H](CC(C)C)C(=O)N2C[C@H](O)C[C@H]2C(=O)N[C@@H](Cc2c[nH]c3ccccc23)C(=O)N[C@@H](CO)C(=O)N[C@@H](Cc2c[nH]c3ccccc23)C(=O)N1C [Example 11064] ({CH2CO}-Y[NMeA]DPHL[Hyp]WSW[NMeNle][NMeNle]RC[Aun]-NH2; thioether N-14)
10 to 99 nM	CCCC[C@H]1C(=O)N(C)[C@@H](CCCC)C(=O)N[C@@H](CC(C)C)C(=O)N[C@H](C(=O)NCC(=O)NCCCOCCOCCOCCCNC(=O)CCC(=O)N[C@@H](CC(=O)O)C(N)=O)CSCC(=O)N[C@@H](Cc2ccc(O)cc2)C(=O)N(C)[C@@H](C)C(=O)N[C@@H](CC(N)=O)C(=O)N2CCC[C@H]2C(=O)N[C@@H](Cc2cnc[nH]2)C(=O)N[C@@H](CCC(=O)O)C(=O)N2C[C@H](O)C[C@H]2C(=O)N[C@@H](Cc2c[nH]c3ccccc23)C(=O)N[C@@H](CCN)C(=O)N[C@@H](Cc2c[nH]c3ccccc23)C(=O)N1C [Example 11065] ({CH2CO}-Y[NMeA]NPHE[Hyp]W[Dab]W[NMeNle][NMeNle]LCG-X3; thioether N-14)
0.3 to 9.9 nM	CCCC[C@H]1C(=O)N(C)[C@@H](CCCC)C(=O)N[C@@H](CC(C)C)C(=O)N[C@H](C(=O)NCCCCCCCCCCC(=O)N[C@@H](CC(=O)O)C(N)=O)CSCC(=O)N[C@@H](Cc2ccc(O)cc2)C(=O)N(C)[C@@H](C)C(=O)N[C@@H](CC(N)=O)C(=O)N2CCC[C@H]2C(=O)N[C@@H](Cc2cnc[nH]2)C(=O)N[C@@H](CCC(=O)O)C(=O)N2C[C@H](O)C[C@H]2C(=O)N[C@@H](Cc2c[nH]c3ccccc23)C(=O)N[C@@H](CCN)C(=O)N[C@@H](Cc2cn(CC(=O)O)c3ccccc23)C(=O)N1C [Example 11066] ({CH2CO}-Y[NMeA]NPHE[Hyp]W[Dab][Trp(1-CH2COOH)][NMeNle][NMeNle]LC[Aun]D-NH2; thioether N-14)
10 to 99 nM	CCCC[C@H]1C(=O)N(C)[C@@H](CCCC)C(=O)N[C@@H](CC(C)C)C(=O)N[C@H](C(=O)NCCCOCCOCCOCCCNC(=O)CCC(=O)N[C@@H](CC(=O)O)C(N)=O)CSCC(=O)N[C@@H](Cc2ccc(O)cc2)C(=O)N(C)[C@@H](C)C(=O)N[C@@H](CC(N)=O)C(=O)N2CCC[C@H]2C(=O)N[C@@H](Cc2cnc[nH]2)C(=O)N[C@@H](CCC(=O)O)C(=O)N2C[C@H](O)C[C@H]2C(=O)N[C@@H](Cc2c[nH]c3ccccc23)C(=O)N[C@@H](CCN)C(=O)N[C@@H](Cc2cn(CC(=O)O)c3ccccc23)C(=O)N1C [Example 11067] ({CH2CO}-Y[NMeA]NPHE[Hyp]W[Dab][Trp(1-CH2COOH)][NMeNle][NMeNle]LC-X3; thioether N-14)
0.3 to 9.9 nM	CCCC[C@H]1C(=O)N(C)[C@@H](CCCC)C(=O)N[C@@H](CCCNC(=N)N)C(=O)N[C@H](C(=O)NCC(=O)NCCCOCCOCCOCCCNC(=O)CCC(=O)NCCCCCCCCCCC(=O)O)CSCC(=O)N[C@@H](Cc2ccc(O)cc2)C(=O)N(C)[C@@H](C)C(=O)N[C@@H](CC(=O)O)C(=O)N2CCC[C@H]2C(=O)N[C@@H](Cc2cnc[nH]2)C(=O)N[C@@H](CC(C)C)C(=O)N2C[C@H](O)C[C@H]2C(=O)N[C@@H](Cc2c[nH]c3ccccc23)C(=O)N[C@@H](CO)C(=O)N[C@@H](Cc2c[nH]c3ccccc23)C(=O)N1C [Example 11068] ({CH2CO}-Y[NMeA]DPHL[Hyp]WSW[NMeNle][NMeNle]RCG-X14; thioether N-14)
10 to 99 nM	CCCC[C@H]1C(=O)N(C)[C@@H](CCCC)C(=O)N[C@@H](CCCNC(=N)N)C(=O)N[C@H](C(=O)NCC(=O)NCC(=O)N[C@@H](CC(=O)O)C(=O)NCCCCCCCCCCC(=O)O)CSCC(=O)N[C@@H](Cc2ccc(O)cc2)C(=O)N(C)[C@@H](C)C(=O)N[C@@H](CC(=O)O)C(=O)N2CCC[C@H]2C(=O)N[C@@H](Cc2cnc[nH]2)C(=O)N[C@@H](CC(C)C)C(=O)N2C[C@H](O)C[C@H]2C(=O)N[C@@H](Cc2c[nH]c3ccccc23)C(=O)N[C@@H](CO)C(=O)N[C@@H](Cc2c[nH]c3ccccc23)C(=O)N1C [Example 11069] ({CH2CO}-Y[NMeA]DPHL[Hyp]WSW[NMeNle][NMeNle]RCGGD[Aun]-OH; thioether N-14)
0.3 to 9.9 nM	CCCC[C@H]1C(=O)N(C)[C@@H](CCCC)C(=O)N[C@@H](CCCNC(=N)N)C(=O)N[C@H](C(=O)NCC(=O)NCC(=O)NCC(=O)NCCCCCCCCCCC(=O)O)CSCC(=O)N[C@@H](Cc2ccc(O)cc2)C(=O)N(C)[C@@H](C)C(=O)N[C@@H](CC(=O)O)C(=O)N2CCC[C@H]2C(=O)N[C@@H](Cc2cnc[nH]2)C(=O)N[C@@H](CC(C)C)C(=O)N2C[C@H](O)C[C@H]2C(=O)N[C@@H](Cc2c[nH]c3ccccc23)C(=O)N[C@@H](CO)C(=O)N[C@@H](Cc2c[nH]c3ccccc23)C(=O)N1C [Example 11070] ({CH2CO}-Y[NMeA]DPHL[Hyp]WSW[NMeNle][NMeNle]RCGGG[Aun]-OH; thioether N-14)
0.3 to 9.9 nM	CCCC[C@H]1C(=O)N(C)[C@@H](CCCC)C(=O)N[C@@H](CCCNC(=N)N)C(=O)N[C@H](C(=O)NCC(=O)NCC(=O)NCCCCCCCCCCC(=O)O)CSCC(=O)N[C@@H](Cc2ccc(O)cc2)C(=O)N(C)[C@@H](C)C(=O)N[C@@H](CC(=O)O)C(=O)N2CCC[C@H]2C(=O)N[C@@H](Cc2cnc[nH]2)C(=O)N[C@@H](CC(C)C)C(=O)N2C[C@H](O)C[C@H]2C(=O)N[C@@H](Cc2c[nH]c3ccccc23)C(=O)N[C@@H](CO)C(=O)N[C@@H](Cc2c[nH]c3ccccc23)C(=O)N1C [Example 11071] ({CH2CO}-Y[NMeA]DPHL[Hyp]WSW[NMeNle][NMeNle]RCGG[Aun]-OH; thioether N-14)
10 to 99 nM	CCCC[C@H]1C(=O)N(C)[C@@H](CCCC)C(=O)N[C@@H](CC(C)C)C(=O)N[C@H](C(=O)NCCCOCCOCCOCCCNC(=O)CCC(=O)NCCCCCCCCCCC(=O)O)CSCC(=O)N[C@@H](Cc2ccc(O)cc2)C(=O)N(C)[C@@H](C)C(=O)N[C@@H](CC(N)=O)C(=O)N2CCC[C@H]2C(=O)N[C@@H](Cc2cnc[nH]2)C(=O)N[C@@H](CCC(=O)O)C(=O)N2C[C@H](O)C[C@H]2C(=O)N[C@@H](Cc2c[nH]c3ccccc23)C(=O)N[C@@H](CO)C(=O)N[C@@H](Cc2c[nH]c3ccccc23)C(=O)N1C [Example 11073] ({CH2CO}-Y[NMeA]NPHE[Hyp]WSW[NMeNle][NMeNle]LC-X14; thioether N-14)

From patent US10633419B2, “Immunomodulators” (BRISTOL-MYERS SQUIBB COMPANY, priority 2014, dated 2020)
